We go through eleven compounds from ChEMBL document CHEMBL4477217, “Discovery of 3-(3-(4-(1-Aminocyclobutyl)phenyl)-5-phenyl-3H-imidazo[4,5-b]pyridin-2-yl)pyridin-2-amine (ARQ 092): An Orally Bioavailable, Selective, and Potent Allosteric AKT Inhibitor” (J Med Chem, 2016).

By half-life is commonly meant the time needed for the level to fall by half in the phase considered. As a reminder, the solubility is the concentration that dissolves in the medium under given conditions. What is called IC50 is the concentration at which inhibition is half-maximal. Broadly, the inhibition in vivo is the relative decrease from the control value, in per cent. For orientation: bioavailability means the share of a dose that reaches the circulation, judged against a reference dose that is usually intravenous. A word on the Tmax: it is the time at which the peak concentration occurs. A word on the Cmax: it is the peak of the concentration-time curve. A word on the AUC(0-inf): it is the area under the concentration-time curve extrapolated to infinity.

Data set [1] is described as follows: in vitro. As to conditions: human, liver microsomes. For orientation: Liver microsomes are vesicles of endoplasmic reticulum, rich in cytochrome P450 enzymes.
A short description of data set [2]: Solubility of the compound. Format: physicochemical.
For data set [3], the target named is RAC-gamma serine/threonine-protein kinase (Homo sapiens, UniProt Q9Y243). Further details: species or system Sf9.
Sequence of RAC-gamma serine/threonine-protein kinase (Q9Y243 whole entry): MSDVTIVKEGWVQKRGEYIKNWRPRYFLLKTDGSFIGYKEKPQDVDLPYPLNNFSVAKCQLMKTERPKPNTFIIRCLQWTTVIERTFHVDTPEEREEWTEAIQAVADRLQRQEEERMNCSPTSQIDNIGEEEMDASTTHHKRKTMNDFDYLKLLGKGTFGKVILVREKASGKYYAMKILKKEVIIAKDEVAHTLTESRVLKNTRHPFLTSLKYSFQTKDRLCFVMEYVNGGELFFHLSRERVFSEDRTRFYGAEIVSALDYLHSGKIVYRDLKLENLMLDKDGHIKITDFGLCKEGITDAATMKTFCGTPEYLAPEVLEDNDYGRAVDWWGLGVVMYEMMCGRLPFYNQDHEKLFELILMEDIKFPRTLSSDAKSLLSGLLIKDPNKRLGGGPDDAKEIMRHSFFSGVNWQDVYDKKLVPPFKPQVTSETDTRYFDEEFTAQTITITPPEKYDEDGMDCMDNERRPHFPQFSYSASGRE
Data set [4] deals with RAC-beta serine/threonine-protein kinase (Homo sapiens, UniProt P31751). Set-up: species or system Sf9.
Sequence of RAC-beta serine/threonine-protein kinase (P31751 whole entry): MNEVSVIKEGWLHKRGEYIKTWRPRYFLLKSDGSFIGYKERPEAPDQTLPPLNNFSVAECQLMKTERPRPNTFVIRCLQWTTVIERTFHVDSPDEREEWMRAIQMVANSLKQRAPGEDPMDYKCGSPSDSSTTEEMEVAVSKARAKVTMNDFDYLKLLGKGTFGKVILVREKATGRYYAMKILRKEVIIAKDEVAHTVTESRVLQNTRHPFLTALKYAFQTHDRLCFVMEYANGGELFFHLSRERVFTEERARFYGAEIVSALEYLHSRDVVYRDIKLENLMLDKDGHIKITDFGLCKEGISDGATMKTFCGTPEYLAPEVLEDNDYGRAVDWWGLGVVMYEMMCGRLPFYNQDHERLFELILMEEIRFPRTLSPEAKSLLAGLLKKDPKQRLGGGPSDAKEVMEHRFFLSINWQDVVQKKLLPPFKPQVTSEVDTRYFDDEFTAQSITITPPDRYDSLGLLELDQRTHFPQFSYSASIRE
A short description of data set [5]: in vitro. As to conditions: male, Beagle, dog, liver microsomes.
Data set [6] in a line: in vitro. As to conditions: female, Beagle, dog, liver microsomes.
Data set [7] is described as follows: in vitro. As to conditions: male, CD-1, mouse, liver microsomes.
Data set [8] is described as follows: in vitro. As to conditions: female, CD-1, mouse, liver microsomes.
The test system of data set [9] is Mus musculus. As to the kind of experiment: In vivo inhibition of AKT1 phosphorylation at Ser473 in human AN3CA cells xenografted in NCr-M nude mouse at 100 mg/kg, po after 8 hrs by Western blot analysis. Type of data set: functional. As to conditions: AN3-CA. A general note: Xenograft models place foreign cells or tissue in a host animal.
Data set [10] relates to Mus musculus. As to the kind of experiment: In vivo inhibition of AKT1 phosphorylation at Thr308 in human AN3CA cells xenografted in NCr-M nude mouse at 100 mg/kg, po after 1 hr by Western blot analysis. Format: functional. As to conditions: AN3-CA.
Data set [11] in a line: Oral bioavailability in monkey at 10 mg/kg administered as single dose. Type of data set: ADME, organism-based, Macaca mulatta. As to conditions: rhesus monkey, in vivo.
Data set [12] is described as follows: Drug uptake in NCr-M nude mouse plasma xenografted with human AN3CA cells at 100 mg/kg, po after 8 hr. Format: ADME, organism-based.
In data set [13] the test system is Mus musculus. As to the kind of experiment: In vivo inhibition of AKT1 phosphorylation in human AN3CA cells xenografted in NCr-M nude mouse assessed as inhibition of PRAS40 phosphorylation at Thr246 at 100 mg/kg, po after 1 hr by Western blot analysis. Type of data set: functional. As to conditions: AN3-CA.
For data set [14], the system named is Mus musculus. As to the kind of experiment: In vivo inhibition of AKT1 phosphorylation at Ser473 in human AN3CA cells xenografted in NCr-M nude mouse at 100 mg/kg, po after 1 hr by Western blot analysis. As to conditions: AN3-CA. Format: functional.
The test system of data set [15] is Mus musculus. As to the kind of experiment: In vivo inhibition of AKT1 phosphorylation at Ser473 in human AN3CA cells xenografted in NCr-M nude mouse at 200 mg/kg, po after 1 hr by Western blot analysis. As to conditions: AN3-CA. Type of data set: functional.
The nature of data set [16]: Tmax in rat at 5 mg/kg administered as single dose. Format: ADME, organism-based. As to conditions: in vivo.
The nature of data set [17]: Drug uptake in NCr-M nude mouse plasma xenografted with human AN3CA cells at 200 mg/kg, po after 1 hr. Format: ADME, organism-based.
Data set [18] in a line: Drug uptake in NCr-M nude mouse tumor xenografted with human AN3CA cells at 100 mg/kg, po after 1 hr. Type of data set: ADME, organism-based, Neoplasm. As to conditions: read-out: Drug uptake.
The subject of data set [19] is Mus musculus. As to the kind of experiment: In vivo inhibition of AKT1 phosphorylation at Thr308 in human AN3CA cells xenografted in NCr-M nude mouse at 200 mg/kg, po after 1 hr by Western blot analysis. Type of data set: functional. As to conditions: AN3-CA.
The subject of data set [20] is Mus musculus. As to the kind of experiment: In vivo inhibition of AKT1 phosphorylation at Ser473 in human AN3CA cells xenografted in NCr-M nude mouse at 200 mg/kg, po after 8 hrs by Western blot analysis. Format: functional. As to conditions: AN3-CA.
Data set [21] in a line: Oral bioavailability in rat at 5 mg/kg administered as single dose. As to conditions: in vivo. Format: ADME, organism-based.
Data set [22] can be described thus: Drug uptake in NCr-M nude mouse tumor xenografted with human AN3CA cells at 100 mg/kg, po after 8 hr. Format: ADME, organism-based, Neoplasm. As to conditions: read-out: Drug uptake.
Data set [23] relates to Mus musculus. As to the kind of experiment: In vivo inhibition of AKT1 phosphorylation in human AN3CA cells xenografted in NCr-M nude mouse assessed as inhibition of PRAS40 phosphorylation at Thr246 at 100 mg/kg, po after 8 hrs by Western blot analysis. Type of data set: functional. As to conditions: AN3-CA.
The subject of data set [24] is Mus musculus. As to the kind of experiment: In vivo inhibition of AKT1 phosphorylation in human AN3CA cells xenografted in NCr-M nude mouse assessed as inhibition of PRAS40 phosphorylation at Thr246 at 200 mg/kg, po after 1 hr by Western blot analysis. Format: functional. As to conditions: AN3-CA.
Data set [25] in a line: Half life in monkey at 10 mg/kg administered as single dose. Format: ADME, organism-based, Macaca mulatta. As to conditions: rhesus monkey, in vivo.
The subject of data set [26] is Mus musculus. As to the kind of experiment: In vivo inhibition of AKT1 phosphorylation in human AN3CA cells xenografted in NCr-M nude mouse assessed as inhibition of PRAS40 phosphorylation at Thr246 at 200 mg/kg, po after 8 hrs by Western blot analysis. Format: functional. As to conditions: AN3-CA.
Data set [27] is described as follows: Half life in rat at 5 mg/kg administered as single dose. Format: ADME, organism-based. As to conditions: in vivo.
A short description of data set [28]: Tmax in monkey at 10 mg/kg administered as single dose. Type of data set: ADME, organism-based, Macaca mulatta. As to conditions: rhesus monkey, in vivo.
The nature of data set [29]: Drug uptake in NCr-M nude mouse plasma xenografted with human AN3CA cells at 200 mg/kg, po after 8 hr. Format: ADME, organism-based.
Data set [30] deals with Mus musculus. As to the kind of experiment: In vivo inhibition of AKT1 phosphorylation at Thr308 in human AN3CA cells xenografted in NCr-M nude mouse at 200 mg/kg, po after 8 hrs by Western blot analysis. As to conditions: AN3-CA. Format: functional.
For data set [31], the system named is Mus musculus. As to the kind of experiment: In vivo inhibition of AKT1 phosphorylation at Thr308 in human AN3CA cells xenografted in NCr-M nude mouse at 100 mg/kg, po after 8 hrs by Western blot analysis. Type of data set: functional. As to conditions: AN3-CA.
Data set [32] in a line: Cmax in monkey at 10 mg/kg administered as single dose po. Format: ADME, organism-based, Macaca mulatta. Further details: dose 10 mg/kg, route oral. As to conditions: rhesus monkey, in vivo.
A short description of data set [33]: AUC (infinity) in monkey at 10 mg/kg administered as single dose. Type of data set: ADME, organism-based, Macaca mulatta. As to conditions: rhesus monkey, in vivo. Set-up: dose 10 mg/kg, time infinity.
A short description of data set [34]: Drug uptake in NCr-M nude mouse tumor xenografted with human AN3CA cells at 200 mg/kg, po after 1 hr. Format: ADME, organism-based, Neoplasm. As to conditions: read-out: Drug uptake.
Data set [35] can be described thus: Cmax in rat at 5 mg/kg administered as single dose. Set-up: dose 5 mg/kg. Format: ADME, organism-based. As to conditions: in vivo.
Data set [36] is described as follows: Oral bioavailability in mouse at 100 mg/kg. Type of data set: ADME, organism-based. As to conditions: in vivo.
Data set [37] can be described thus: Drug uptake in NCr-M nude mouse tumor xenografted with human AN3CA cells at 200 mg/kg, po after 8 hr. As to conditions: read-out: Drug uptake. Format: ADME, organism-based, Neoplasm.
Data set [38] is described as follows: Drug uptake in NCr-M nude mouse plasma xenografted with human AN3CA cells at 100 mg/kg, po after 1 hr. Type of data set: ADME, organism-based.
Data set [39] is described as follows: AUC (infinity) in rat at 5 mg/kg administered as single dose. Format: ADME, organism-based. Further details: dose 5 mg/kg, time infinity. As to conditions: in vivo.

Some results are limits rather than exact numbers.

With `Cl.NCc1ccc(-n2c(-c3cccnc3N)nc3ccc(-c4ccccc4)nc32)cc1`, the half-life at 1 µM in the data set “in vitro [1]” was 39 min. For the same compound, the solubility in [2] was determined as 188 µM.
As for `NCc1ccc(-n2c(-c3cccnc3N)nc3cc(-c4cccnc4)cnc32)cc1`, the IC50 in data set [3] was more than 10 µM; in data set [4] it was 3.5 µM.
In the same order, the values of `Cc1ccc(-n2c(-c3cccnc3N)nc3cccnc32)cc1` are more than 100 µM and 20 µM.
Turning to `CC(=O)Nc1cccc(-c2ccc3nc(-c4cccnc4N)n(-c4ccc(CN)cc4)c3n2)c1.Cl`, the half-life at 1 µM was more than 60 min in “in vitro [5]”, more than 60 min in “in vitro [6]”, more than 60 min in the data set “in vitro [7]” and 45 min in “in vitro [8]”. This compound also gave a solubility in [2] not below 200 µM.
With `Cl.Nc1ncccc1-c1nc2ccc(-c3cccnc3)nc2n1-c1ccc(C2(N)CCC2)cc1`, the half-life at 1 µM in the data set “in vitro [1]” was more than 30 min; in “in vitro [5]” it was more than 30 min; in “in vitro [6]”, 21 min; in the data set “in vitro [7]”, 31 min; in the data set “in vitro [8]”, 37 min. The same compound displayed a solubility in [2] of 178 µM.
Consider `Cc1cnc2c(c1)nc(-c1cccnc1N)n2-c1ccc(CN)cc1`, for which the concentration for half-maximal inhibition (IC50) in [3] is more than 10 µM.
For `Cl.Nc1cccc(-c2ccc3nc(-c4cccnc4N)n(-c4ccc(C5(N)CCC5)cc4)c3n2)c1`, the half-life at 1 µM in “in vitro [1]”, in “in vitro [5]”, in “in vitro [6]”, in “in vitro [7]” and in the data set “in vitro [8]” was more than 60 min each time. Also, in [2], the concentration in solution (solubility) was 138 µM.
Consider `CC(C)(C)c1ccc(-n2c(-c3cccnc3N)nc3cccnc32)cc1`, for which the IC50 in data set [3] was 71 µM; in data set [4] it was 16 µM.
As to `NCc1ccc(-n2c(-c3cccnc3N)nc3cccnc32)cc1`, the IC50 in data set [3] was more than 100 µM; in data set [4], 9.3 µM.
Turning to `Cl.Nc1ncccc1-c1nc2ccc(-c3ccccc3)nc2n1-c1ccc(C2(N)CCC2)cc1`, the inhibition in vivo at 100 mg/kg in the data set with Mus musculus [9] came to 98.6%; in the data set on Mus musculus [10], 95%; in the data set with Mus musculus [13], 57.7%; in the data set on Mus musculus [14], 99.2%; in the data set on Mus musculus [23], 35.9%; in the data set on Mus musculus [31] it was 96.3%. For the same compound, the half-life at 1 µM in the data set “in vitro [1]” was determined as 55 min; in “in vitro [5]”, 31 min; in the data set “in vitro [6]”, 28 min; in “in vitro [7]”, 17 min; in “in vitro [8]”, 18 min. The bioavailability in data set [11] was determined as 49%; in data set [21], 62%; in data set [36], 23%. Also, the concentration at 8 h in data set [12] was determined as 260 nM; in data set [22], 9.6 µM; in data set [29], 1000 nM; in [37] it was 27.4 µM. Besides, the inhibition in vivo at 200 mg/kg was 99.2% in the data set on Mus musculus [15]; 93.3% with Mus musculus [19]; 99.7% in the data set with Mus musculus [20]; 50.5% in the data set with Mus musculus [24]; 42.5% in the data set on Mus musculus [26]; 90.8% in the data set with Mus musculus [30]. Also, the Tmax in data set [16] was 8 h; in [28], 4.3 h. Further, the concentration at 1 h in data set [17] was 2700 nM; in data set [18], 21 µM; in data set [34] it was 35.8 µM; in data set [38], 2100 nM. For the same compound, the concentration in solution in data set [2] (solubility) was 170 µM. For the same compound, the half-life in data set [25] was 420 min; in data set [27], 1020 min. Besides, the Cmax in data set [32] is 258 ng/mL; in [35] it was 198 ng/mL. The AUC(0-inf) in [33] amounted to 2960 ng·h/mL; in data set [39], 5500 ng·h/mL.
With `CC(=O)Nc1cccc(-c2ccc3nc(-c4cccnc4N)n(-c4ccc(C5(N)CCC5)cc4)c3n2)c1.Cl`, the half-life at 1 µM in the data set “in vitro [1]” was more than 60 min; in the data set “in vitro [5]”, more than 60 min; in “in vitro [6]”, 50 min; in the data set “in vitro [7]” it was more than 60 min; in “in vitro [8]” it was more than 60 min. This compound also displayed a solubility in [2] of 160 µM.
